# In patent publication US20060194815A1, “Methods and compositions for modulating serum cortisol levels” (priority 2003, published 2006):
# Tests used:
# [1] = system: Y1 mouse adrenal tumor cells; assay: dbcAMP-induced 20á-hydroxyprogesterone synthesis in Y1 cells (RIA); type: cell-based
# Protocol: (§1) Culture media were then changed and cells were stimulated with 1 mM dbcAMP and the treatment for 24 to 48 hours. […] The synthesis of 20-OH progesterone and progesterone in Y1 and MA-10 cell media respectively were measured by RIA (Brown et al., 1992). H295R human adrenal tumor cells were seeded in 48-well plates at 10^5 cells/well and incubated for 24 hours. […] At the end of the incubation time period, cells were treated with 1 mM dbcAMP for 48 hours. Cortisol levels in the media were determined by radioimmunoassay as previously described (Amri et al., 1996).
# [2] = system: H295R human adrenal tumor cells; assay: dbcAMP-induced cortisol synthesis in H295R cells (RIA); type: cell-based
# Protocol: as §1
# [3] = system: H295R human adrenal tumor cells; assay: MTT cell viability / mitochondrial function, H295R cells; type: cell-based; settings: H295R cells exposed to dbcAMP
# Protocol: (§2) Cell viability at the end of the incubation protocol described above was assessed using the mitochondrial integrity 3-(4,5-dimethylthiazol-2-yl)-2,5-diphenyl tetrazolium bromide (MTT) assay (Trevigen, Gaithersburg, Md.). Briefly, 10 l of the MTT solution were added to the cells in 100 l medium. After an incubation period of 4 hours, 100 l of detergent were added and cells were incubated overnight at 37° C. Formazan blue formation was quantified at 600 nm and 690 nm using the Victor quantitative detection spectrophotometer (EGG-Wallac, Gaithersburg, Md.) and the results expressed as (OD600-OD690).
# [4] = system: MA-10 mouse Leydig tumor cells; assay: dbcAMP-induced progesterone synthesis in MA-10 cells (RIA); type: cell-based
# Protocol: as §1
# [5] = system: MA-10 mouse Leydig tumor cells; assay: MTT cell viability, MA-10 cells; type: cell-based
# Protocol: as §2
# PKA = assay: dbcAMP-stimulated PKA activity in Y1 cells (PepTag assay); type: cell-based, mouse; design: dose or concentration left out as unconfirmed
# Protocol: Y1 cells were cultured in 6-well plates (2×10^5 cells per well) and treated as described above for steroid biosynthesis. At the end of the incubation, cells were washed twice with PBS and proteins were extracted using an extraction buffer (25 mM tris-HCl pH 7.4, 0.5 mM EDTA, 0.5 mM EGTA, 10 mM-mercaptoethanol, 0.5 mM PMSF, 1 g/ml leupeptin, and 1 g/ml aprotinin). After centrifugation at 18,500 g for 15 minutes, the supernatants were kept for PKA activity assay. Samples were processed using the PepTag assay for non-radioactive detection of PKA activity following the manufacturer's recommendations (Promega Corporation, Madison, Wis.).
smiles,measurement,setting,value
CCN(CC)CCOC(=O)c1ccc(N)cc1 [procaine],dbcAMP-induced 20á-hydroxyprogesterone production,"[1]; Y1 cells, 1 mM dbcAMP, increasing concentrations",decreased in a dose-dependent manner
same,basal steroid formation by Y1 cells,[1]; no dbcAMP stimulus,without affecting
same,dbcAMP-stimulated cortisol production,"[2]; H295R cells, 1 mM dbcAMP",inhibited the dbcAMP-stimulated cortisol production in a dose-dependent manner
same,basal cortisol production,"[2]; H295R cells, no dbcAMP",without effecting basal cortisol production
same,sensitivity of human adrenal tumor cells versus mouse adrenal cells,[2]; H295R versus Y1,less sensitive
same,dbcAMP-induced change of mitochondrial function (MTT),[3],reversed the effect of dbcAMP on mitochondrial function
same,dbcAMP-induced change of mitochondrial function (MTT),[3]; listed as Procaine,protected against the dbc-AMP-induced change of mitochondrial function
same,dbcAMP-induced progesterone synthesis,[4],did not affect
same,cell viability (MTT assay),[5],did not affect
same,dbcAMP-stimulated PKA activity,PKA,did not affect
